Data published in US20180064829A1, “FLUORESCENT BISPHOSPHONATE ANALOGS” (University of Southern California, priority 2015, published 2018).

Key:
[1] = UV-VIS absorption and fluorescence emission spectra; assay type: physicochemical; conditions: 0.1M phosphate buffer (1x PBS for 7d5); ± 1 nm error
Experimental: All labeled samples were dissolved in water and diluted with 0.1 M phosphate buffer or 1×PBS (for 7d5). Assuming that the labeled bisphosphonates have the same extinction coefficient (E) as the carboxylic acid of the free fluorescent label, the final concentrations for all labeled products were calculated from UV-VIS absorption spectra at λ=493 nm (ε=73000 M^−1 cm^−1 at pH 7.2) for FAM conjugates (7a1-7a3, 7b1, 7c1, 7d1-7d2, 7e1-7e2, 7f1-7f2), λ=567.5 nm (ε=114850 M^−1cm^−1 at pH 7.5) for RhR-X conjugates (7a4, 7b2, 7c2), λ=580 nm (c=72000 M^−1cm^−1 at pH 8.0) for ROX conjugates (7a5, 7b3), λ=648 nm (ε=240000 M^−1cm^−1 at pH 7.2) for AF647 conjugates (7a6, 7b4, 7d3), λ=774 nm (ε=240000 M^−1cm^−1 at pH 7.4) for 800CW conjugates (7d4), λ=644 nm (ε=271000 M^−1cm^−1 at pH 7.4, 1×PBS) for Sulfo-Cy5 conjugates (7d5).
Emission spectra for FAM and RhR-X conjugates were recorded using an excitation wavelength of 490 nm or 520 nm, respectively. Emission spectra for AF647 conjugates and Sulfo-Cy5 conjugates were recorded using an excitation wavelength of 600 nm. Emission spectra of 5(6)-ROX conjugates were recorded using an excitation wavelength of 575 nm. Emission spectra of IRDye CW800 conjugate was recorded using an excitation wavelength of 750 nm. The set-up of excitation slit, emission slit, integration time and increment were determined to get optimal spectra for each compound respectively, depending on the sample concentration and spectrometer used.

[2] = pH 7.0, 0.1M phosphate buffer; assumed the same as the corresponding fluorescent dye; cited from earlier work
[3] = tested on: unprenylated Rap1A (uRap1A); assay: Prenylation assay: Western blot for unprenylated Rap1A in J774.2 macrophages; assay type: cell-based, mouse; conditions: 10 or 100 μM, 24 h, FIG. 5A-C
Experimental: To determine the effect of fluorescent BP probes on protein prenylation, J774.2 mouse macrophages were plated out at 2×10^5 cells/mL in 24-well plates and left to adhere overnight. Cells were then treated with 10 or 100 μM of fluorescent analogues of RIS, dRIS, and ZOL, the respective native BP, or vehicle, for 24 h. Cells were lysed in radioimmunoprecipitation buffer, and proteins were separated by sodium dodecyl sulfate polyacrylamide gel electrophoresis and transferred to polyvinyl difluoride membranes by western blotting. Membranes were then incubated with antibodies to the unprenylated form of Rap1A (uRap1A) and the housekeeping protein β-actin, which were detected by incubation with fluorescently-labeled secondary antibodies and scanning of membranes on a LI-COR Infrared Imager. Results shown are representative of 2 independent experiments. The ratio between abundance of unprenylated RaplA and β-actin is indicated for each sample below the blots in FIG. 5.

[4] = Hydroxyapatite (HAP) column chromatography binding assay; conditions: pH 6.8, phosphate gradient 1 to 1000 mM; FIG. 3
Experimental: The fast performance liquid chromatography (FPLC) system consisted of a Waters 650E advanced protein purification system (Millipore Corp., Waters chromatography division, Milford, Mass.), a 600E system controller and a 484 tunable absorbance detector for UV absorbance assessment. Ceramic hydroxyapatite [HAP, […], Macro-Prep® Ceramic Hydroxyapatite Type II 20 μm 100 g, Bio-Rad Laboratories, Inc. Hercules, Calif.] was equilibrated with 1 mM phosphate buffer (pH 6.8) and packed in a 0.66 cm (diameter)×6.5 cm (length) glass column (Omnifit, Bio-chem Valve™ inc., Cambridge, U.K.), which was attached to the Waters 650E advanced protein purification system. Each sample was prepared in 1 mM potassium phosphate buffer, and 100 μL of 1 mM (0.1 μmol) sample was injected into the FPLC system. As a consequence, the compounds were absorbed and subsequently eluted at a flow rate of 2 ml/min by using a linear concentration gradient of phosphate from 1 to 1000 mM at pH 6.8. Fractions of each sample were collected in 80 tubes using an automated fraction collector (Gilson, France) and then used for subsequent ultraviolet (SPECTRAmax PLUS 384, Molecular Devices, CA) or fluorescence spectrometry detection (WALLAC VICTOR™, 1420 MULTILABEL COUNTER, Perkin Elmer, USA). […] The elution profile for each sample was determined in triplicate for statistical analysis (Prism, GraphPad Software, USA). […]

J774.2 macrophages = assay: J774.2 cell viability assay (AlamarBlue); assay type: cell-based, mouse; conditions: J774.2 macrophages, 10, 100 or 500 μM, 48 h; FIG. 5D-F
Experimental: To determine the effect of fluorescent BP analogues on cell viability, J774.2 mouse macrophages were plated at 2×10^5 cells/mL in 96-well plates and left to adhere overnight. Cells were then treated with 10, 100 or 500 μM of fluorescent analogues of RIS, dRIS, and ZOL, the respective native BP, or vehicle, for 48 h. At the end of the incubation period, AlamarBlue reagent was added to each well and incubation continued for a further 3 h. Fluorescence was detected on a plate reader, and expressed as percent of vehicle control. Results are shown as mean±SD of ≧2 independent experiments, performed at least in duplicate.

[5] = tested on: unprenylated Rap1A (uRap1A); conditions: PC analogues versus N-BPs; cited from earlier work
[6] = parent compounds, ref. [23]; cited from earlier work

Row | Structure (SMILES) | Maximum absorption wavelength (λmax (abs), nm) [1] | Maximum emission wavelength (λmax (em), nm) [1] | Extinction coefficient [2] | accumulation of unprenylated Rap1A (anti-prenylation activity) [3] | HAP binding affinity (retention time on HAP column, normalized to RIS) [4] | viable cell number (J774.2 macrophages) | activity in uRap1A and J774.2 cell viability screening assays [5] | rank order of mineral binding affinity [6]
1 | CC1(C)C(C=CC=CC=C2N(CCCS(=O)(=O)O)c3ccc(S(=O)(=O)O)cc3C2(C)CCCCCC(=O)NCC(O)C[n+]2cccc(CC(O)(P(=O)(O)O)P(=O)(O)O)c2)=[N+](CCCS(=O)(=O)O)c2ccc(S(=O)(=O)O)cc21 (centres unmarked) [AF647-RIS, 2-(5-(3-(6-((2-hydroxy-3-(3-(2-hydroxy-2,2-diphosphonoethyl)pyridin-1-ium-1-yl)propyl)amino)-6-oxohexyl)-3-methyl-5-sulfo-1-(3-sulfopropyl)indolin-2-ylidene)penta-1,3-dien-1-yl)-3,3-dimethyl-5-sulfo-1-(3-sulfopropyl)-3H-indol-1-ium] | 648 nm | 666 nm | 240,000 (pH 7.0) M^−1cm^−1 | did not show accumulation of unprenylated Rap1A | largest relative decrease of HAP affinity compared to other fluorescent RIS conjugates, but still retains strong absolute binding affinity | modest decreases in viable cell number at high concentrations |  | 
2 | CC1(C)C(/C=C/C2=C(Oc3ccc(S(=O)(=O)O)cc3)C(=C/C=C3/N(CCCCS(=O)(=O)[O-])c4ccc(S(=O)(=O)[O-])cc4C3(C)C)/CCC2)=[N+](CCCCCC(=O)NCC(O)C[n+]2ccn(CC(O)(P(=O)(O)O)P(=O)(O)O)c2)c2ccc(S(=O)(=O)O)cc21 (centres unmarked) [Compound 800CW-ZOL, (E)-2-((E)-2-(3-((E)-2-(1-(6-((2-hydroxy-3-(1-(2-hydroxy-2,2-diphosphonoethyl)-1H-imidazol-3-ium-3-yl)propyl)amino)-6-oxohexyl)-3,3-dimethyl-5-sulfo-3H-indol-1-ium-2-yl)vinyl)-2-(4-sulfophenoxy)cyclohex-2-en-1-ylidene)ethylidene)-3,3-dimethyl-1-(4-sulfonatobutyl)indoline-5-sulfonate] | 774 nm | 789 nm | 240,000 (pH 7.0) M^−1cm^−1 | did not show accumulation of unprenylated Rap1A |  | modest decreases in viable cell number at high concentrations |  | 
3 | O=C(O)C(O)(Cc1cnc2ccccn12)P(=O)(O)O (centres unmarked) [MINPC, 2-hydroxy-3-imidazo[1,2-a]pyridin-3-yl-2-phosphonopropionic acid] |  |  |  |  |  |  | much less active than the N-BPs | 
4 | O=C(O)C(O)(Cc1cccnc1)P(=O)(O)O (centres unmarked) [RISPC, 2-hydroxy-2-phosphono-3-pyridin-3-ylpropanoic acid] |  |  |  |  |  |  | much less active than the N-BPs | RIS>dRIS>RISPC
